Measurements taken from patent publication US6342499B1, “Parasitic and saprophagous mite control in beneficial insects” (BASF Aktiengesellschaft, priority 1998, dated 2002).

Key:
Assay type in all cases: in vivo
Varroa jacobsoni = test: Example 4: METI, topical treatment of honeybees from hives 70% infested with Varroa; parasite mortality; settings: 5 days at 31° C.
Description: (§1) Honeybees (Apis mellifera) taken from hives which are 70% infested with Varroa jacobsoni are chilled to immobilize the bees. A 1 μl droplet of an acetone solution of test compound is applied to the dorsal abdomen of each bee; control bees receive a 1 μl droplet of acetone. A total of 50-52 bees are treated for each dose rate tested. The treated bees are placed in an incubator at 31° C. in the dark and fed 50% sugar water ad libitum for 5 days. After incubation, the bees are examined for mortality and mite infestation.

[1] = test system: honeybees (Apis mellifera); test: Example 4: METI, topical treatment of honeybees from hives 70% infested with Varroa; bee mortality; settings: 5 days at 31° C.
Description: as §1

[2] = test system: Histiostoma sp. mites (Hist); test: Example 5: treated paper strips in mite-infested Drosophila culture vials; Histiostoma mortality; settings: treated paper strip, after 15 days, percent of expected progeny vs untreated control
Description: (§2) Paper towel strips (2×7 cm) are dipped into an acetone solution of test compound and allowed to dry. Control paper towel strips are dipped into acetone and allowed to dry. Treated strips are placed in 2.5×9.5 cm culture vials containing a standard cornmeal-molasses-agar diet, such that the strips are inserted about 1 cm into the diet. Five pairs of heavily infested, newly emerged Drosophila melanogaster are placed into the test vials and incubated at 25° C. After 5 days, the adult flies are evaluated for % mortality and are removed rom each test vial. After 15 days, the mites [Proctoloaelaps sp.(Proct) and Histiostoma sp.(Hist)] and insect larva/pupa are evaluated for mortality and recorded as a percent of expected progeny as determined by the untreated control. At 14 days approximately 200-500 Histiostoma sp. mites (Hist) and approximately 50 Proctolaelaps sp. mites (Proct) are present in the untreated controls.

[3] = test system: Proctolaelaps sp. mites (Proct); test: Example 5: treated paper strips in mite-infested Drosophila culture vials; Proctolaelaps mortality; settings: treated paper strip, after 15 days, percent of expected progeny vs untreated control
Description: as §2

Drosophila melanogaster = test: Example 5: treated paper strips in mite-infested Drosophila culture vials; fly mortality; settings: treated paper strip; for % Mortality Drosophila Adults: after 5 days at 25° C.; for % Mortality Drosophila larvae: after 15 days, percent of expected progeny vs untreated control
Description: as §2

[4] = test system: Acarapis woodi (trachea mites); test: Example 3: tracheal mites walked across glass slides dipped in test compound; time to 100% mortality; settings: slides dipped in 500 ppm acetone solution
Description: In this evaluation, honeybees (Apis mellifera) which are infested with Acarapis woodi (trachea mites) are dissected to remove the infested tracheae. Glass microscope slides are dipped into acetone solutions of test compound (500 ppm) and the acetone is allowed to evaporate. Infested tracheae are placed directly on the treated slides. The mites are removed from the tracheae by dissection and forced to walk across the treated area. The elapsed time is recorded for 100% mortality, i.e. no movement is observed upon agitation.

SMILES: CCCCCCCCCCCCC1=C(OC(C)=O)C(=O)c2ccccc2C1=O [Acequinocyl, acequinocyl]
- % Mortality Parasites (Varroa jacobsoni; dose 0.1 μg/bee): 12%
- % Mortality Parasites (Varroa jacobsoni; dose 1.0 μg/bee): 0%
- % Mortality Parasites (Varroa jacobsoni; dose 10.0 μg/bee): 83%
- % Mortality Bees ([1]; dose 0.1 μg/bee): 15%
- % Mortality Bees ([1]; dose 1.0 μg/bee): 10%
- % Mortality Bees ([1]; dose 10.0 μg/bee): 42%

SMILES: Fc1ccc(Oc2cc(Oc3ccc(Cl)c(C(F)(F)F)c3)ncn2)cc1C(F)(F)F [C]
- % Mortality Mites Hist ([2]; dose 10 ppm): 90%
- % Mortality Mites Hist ([2]; dose 50 ppm): 100%
- % Mortality Mites Hist ([2]; dose 100 ppm): 100%
- % Mortality Mites Proct ([3]; dose 10 ppm): 40%
- % Mortality Mites Proct ([3]; dose 50 ppm): 100%
- % Mortality Mites Proct ([3]; dose 100 ppm): 100%
- % Mortality Drosophila Adults (Drosophila melanogaster; dose 10 ppm): 15%
- % Mortality Drosophila larvae (Drosophila melanogaster; dose 10 ppm): 0%
- % Mortality Drosophila Adults (Drosophila melanogaster; dose 50 ppm): 20%
- % Mortality Drosophila larvae (Drosophila melanogaster; dose 50 ppm): 53%
- % Mortality Drosophila Adults (Drosophila melanogaster; dose 100 ppm): 100%
- % Mortality Drosophila larvae (Drosophila melanogaster; dose 100 ppm): 73%
- Time required in minutes to achieve 100% mortality ([4]; Rep. 1): 16 min
- Time required in minutes to achieve 100% mortality ([4]; Rep. 2): 16 min
- Time required in minutes to achieve 100% mortality ([4]; Rep. 3): 15 min

SMILES: CC(C)(C)c1ccc(CSc2cnn(C(C)(C)C)c(=O)c2Cl)cc1 [Pyridaben, pyridaben]
- % Mortality Parasites (Varroa jacobsoni; dose 0.001 μg/bee): 14%
- % Mortality Parasites (Varroa jacobsoni; dose 0.01 μg/bee): 0%
- % Mortality Parasites (Varroa jacobsoni; dose 0.1 μg/bee): 100%
- % Mortality Bees ([1]; dose 0.001 μg/bee): 12%
- % Mortality Bees ([1]; dose 0.01 μg/bee): 10%
- % Mortality Bees ([1]; dose 0.1 μg/bee): 20%

SMILES: Cc1nn(C)c(Oc2ccccc2)c1C=NOCc1ccc(C(=O)OC(C)(C)C)cc1 [Fenpyroximate, fenpyroximate]
- % Mortality Parasites (Varroa jacobsoni; dose 0.003 μg/bee): 7%
- % Mortality Parasites (Varroa jacobsoni; dose 0.03 μg/bee): 30%
- % Mortality Parasites (Varroa jacobsoni; dose 0.3 μg/bee): 100%
- % Mortality Bees ([1]; dose 0.003 μg/bee): 13%
- % Mortality Bees ([1]; dose 0.03 μg/bee): 10%
- % Mortality Bees ([1]; dose 0.3 μg/bee): 24%

SMILES: CC(C)(C)c1ccc(CCOc2ncnc3ccccc23)cc1 [Fenazaquin, fenazaquin]
- % Mortality Parasites (Varroa jacobsoni; dose 0.012 μg/bee): 19%
- % Mortality Parasites (Varroa jacobsoni; dose 0.12 μg/bee): 27%
- % Mortality Parasites (Varroa jacobsoni; dose 1.2 μg/bee): 87%
- % Mortality Bees ([1]; dose 0.012 μg/bee): 18%
- % Mortality Bees ([1]; dose 0.12 μg/bee): 14%
- % Mortality Bees ([1]; dose 1.2 μg/bee): 18%
